Reference: patent publication US20190241569A1, “3-(ARYL OR HETEROARYL) METHYLENEINDOLIN-2-ONE DERIVATIVES AS INHIBITORS OF CANCER STEM CELL PATHWAY KINASES FOR THE TREATMENT OF CANCER” (Boston Biomedical, Inc., priority 2013, published 2019)
Where two headings read alike, the source gives them in different places.

What was measured:
Format in all cases: cell-based
[1] = tested on: FaDu; experiment: Bulk cancer cells, Cell Titer-Glo 72 hours (Test Example 2); settings: Homo sapiens
Method: (§1) Tubes of 3× drug (60 uM in 500 uL complete media) were prepared from 5 mM stock solutions in DMSO. […] To treat cells, 50 uL of drug from the dilution plate was removed and added to the cell plates. […] Cells were harvested 72 hours after drug addition using Cell Titer-Glo (Promega) and luminescence measured on a plate reader.

[2] = tested on: ACHN CSC; experiment: Cancer stem cells, Cell Titer-Glo 72 hours (Test Example 3)
[3] = tested on: A549; experiment: Bulk cancer cells, Cell Titer-Glo 72 hours (Test Example 2); settings: Homo sapiens
Method: as §1

[4] = tested on: FaDu CSC; experiment: Cancer stem cells, Cell Titer-Glo 72 hours (Test Example 3)
[5] = tested on: ACHN; experiment: Bulk cancer cells, Cell Titer-Glo 72 hours (Test Example 2); settings: Homo sapiens, ACHN, 72 h
Method: as §1

[6] = tested on: A549 CSC; experiment: Cancer stem cells, Cell Titer-Glo 72 hours (Test Example 3); settings: Homo sapiens

SMILES | IC50 [1] | IC50 ([2]; Homo sapiens, ACHN, 72 h) | IC50 [3] | IC50 ([4]; Homo sapiens, FaDu, 72 h) | IC50 [5] | IC50 [6] | IC50 [4] | IC50 [2]
Cc1ccc(-c2ccc3c(c2)/C(=C/c2[nH]c(C)cc2C)C(=O)N3)nc1 [Example 216] | 37.3 µM | 0.05 µM |  |  |  |  |  | 
Cc1cc(C)c(/C=C2\C(=O)Nc3ccc(-c4ccccn4)cc32)[nH]1 [Example 226] |  | 0.02 µM |  |  |  |  |  | 
CCN(CC)CCNC(=O)c1c(C)[nH]c(/C=C2\C(=O)Nc3ccc(-c4nnc(-c5ccccc5)s4)cc32)c1C [Example 52] | 2.15 µM |  | 48.9 µM | 0.23 µM |  |  |  | 
CCN(CC)CCNC(=O)c1c(C)[nH]c(/C=C2\C(=O)Nc3ccc(-c4csc(C5CCNC5)n4)cc32)c1C (stereo not drawn) [Example 133] | 2.42 µM |  | 0.72 µM |  | 6.75 µM | 32.5 µM |  | 
CCN(CC)CCNC(=O)c1c(C)[nH]c(/C=C2\C(=O)Nc3ccc(-n4cc(-c5ccccc5)nn4)cc32)c1C [Example 49] | 6.58 µM |  |  | 3 µM | 7.16 µM |  |  | 
Cc1cc(C)c(/C=C2\C(=O)Nc3ccc(-c4ccncc4)cc32)[nH]1 [Example 238] |  | 6.95 µM |  |  |  |  |  | 
O=C1Nc2ccc(-c3csc(-c4ccncc4)n3)cc2/C1=C/c1ccc(N2CCNCC2)cc1 [Example 170] | 25.2 µM |  | 8.73 µM |  |  |  |  | 
Cc1cc(C)c(/C=C2\C(=O)Nc3ccc(-c4cnc5ccccc5n4)cc32)[nH]1 [Example 217] | 25.8 µM |  | 7.89 µM | 0.09 µM | 10.6 µM |  |  | 
Cc1cc(C)c(/C=C2\C(=O)Nc3ccc(-c4ncccn4)cc32)[nH]1 [Example 236] | 26.1 µM |  |  | 25.2 µM | 25.3 µM | 28.7 µM |  | 
Cc1cc(C)c(/C=C2\C(=O)Nc3ccc(-c4cncnc4)cc32)[nH]1 [Example 212] |  |  | 20.8 µM |  | 12.8 µM |  |  | 
Cc1cc(C)c(/C=C2\C(=O)Nc3cc(-c4ccncc4)ccc32)[nH]1 [Example 250] | 18.4 µM |  |  |  |  | 0.98 µM |  | 
Cc1cc(C)c(/C=C2\C(=O)Nc3ccc(-c4cccc5ncccc45)cc32)[nH]1 [Example 259] | 13.4 µM |  | 11.1 µM | 13.1 µM | 13.2 µM | 40 µM |  | 
CCOC(=O)c1cc(C)c(/C=C2\C(=O)Nc3ccc(-c4csc(-c5ccccc5)n4)cc32)[nH]1 [Example 161] | 13.5 µM |  | 40 µM |  | 0.39 µM | 13.2 µM |  | 
O=C1Nc2ccc(-c3csc(-c4ccncc4)n3)cc2/C1=C/c1cc2c([nH]1)CCCC2 [Example 156] |  |  |  |  | 37.8 µM | 0.8 µM |  | 
Cc1cc(C)c(/C=C2\C(=O)Nc3ccc(-c4nccc5ccccc45)cc32)[nH]1 [Example 219] | 23.5 µM |  | 18.4 µM |  |  |  |  | 
Cc1cc(C)c(/C=C2\C(=O)Nc3ccc(-c4cc(-c5ccccc5)ccn4)cc32)[nH]1 [Example 223] | 22.4 µM |  | 13.8 µM |  |  | 35.7 µM |  | 
Cc1cc(C)c(/C=C2\C(=O)Nc3ccc(-c4cnc5ccccn45)cc32)[nH]1 [Example 224] | 11.4 µM |  | 16.6 µM | 17 µM | 25.2 µM | 20.2 µM |  | 
Cc1cc(C)c(/C=C2\C(=O)Nc3ccc(-c4nc5ccccc5s4)cc32)[nH]1 [Example 235] | 26.8 µM |  | 16.1 µM |  | 14.7 µM |  |  | 
O=C1Nc2ccc(-c3csc(-c4ccccc4)n3)cc2/C1=C/c1cnc[nH]1 [Example 151] | 6.14 µM |  | 11.2 µM | 6.32 µM | 8.74 µM | 0.9 µM |  | 
CSc1cnc(-c2ccc3c(c2)/C(=C/c2[nH]c(C)cc2C)C(=O)N3)cn1 [Example 221] |  | 18.3 µM | 35.8 µM |  | 0.16 µM |  |  | 
Cc1cc(C)c(/C=C2\C(=O)Nc3ccc(-c4ncccc4C)cc32)[nH]1 [Example 225] |  |  |  |  |  |  | 47.4 µM | 0.01 µM
CCN(CC)CCN1CCCc2[nH]c(/C=C3\C(=O)Nc4ccc(-c5csc(C6CCNCC6)n5)cc43)c(C)c2C1=O [Example 178] | 8.67 µM | 11.9 µM | 7.06 µM |  |  |  |  | 
CCN(CC)CCN1CCCc2[nH]c(/C=C3\C(=O)Nc4ccc(-c5csc(-c6ccccc6)n5)cc43)c(C)c2C1=O [Example 176] | 5.31 µM |  | 18 µM |  |  |  |  | 
COC(=O)c1c(C)[nH]c(/C=C2\C(=O)Nc3ccc(-c4csc(-c5ccccc5)n4)cc32)c1C [Example 141] | 21.8 µM |  | 16.3 µM |  | 1.16 µM |  |  | 
Cc1cc(C)c(/C=C2\C(=O)Nc3ccc(-c4ccc(C=O)cc4)cc32)[nH]1 [Example 262] | 26.8 µM |  | 29.2 µM |  |  |  |  | 
